Like-named read-outs stand apart in the source and are kept apart here.
Experiments:
GSK 3α = GSK 3α (Homo sapiens (Human), UniProt P49840); test: GSK 3α enzyme inhibition (FRET, Z-LYTE, Method 2); format: biochemical; details: read-out: IC50 Values for Enzyme Inhibition, GSK3α
Summary of the method: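 Phosphorylation of a dual-labelled synthetic peptide by human GSK3α is read as a coumarin/fluorescein ratio after protease development. Compound stocks run 4 to 0.004 μg/mL, and ATP stock is 40 μM.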

[1] = target: p38 MAPKα isoform (MAPK14) (Homo sapiens (Human), UniProt Q16539); test: p38 MAPKα enzyme inhibition (FRET, Z-LYTE, Method 2); format: biochemical
Procedure: (§1) The enzyme inhibitory activities of compounds disclosed herein are determined by FRET using synthetic peptides labelled with both donor and acceptor fluorophores (Z-LYTE, Invitrogen Ltd., Paisley, UK).
The following two assay variants can be used for determination of p38 MAPKα inhibition.
The inhibitory activities of test compounds against the p38 MAPKα isoform (MAPK14: Invitrogen), are evaluated indirectly by determining the level of activation/phosphorylation of the down-stream molecule, MAPKAP-K2. The p38 MAPKα protein (80 ng/mL, 2.5 μL) is mixed with the test compound (2.5 μL of either 4 μg/mL, 0.4 μg/mL, 0.04 μg/mL or 0.004 μg/mL) for 2 hr at RT. […] The mixture is incubated for 1 hr at RT. Development reagent (protease, 5 μL) is added for 1 hr prior to detection in a fluorescence microplate reader (Varioskan® Flash, ThermoFisher Scientific).
This method follows the same steps as Method 1 above, but utilises a higher concentration of the p38 MAPKα protein (2.5 μL of 200 ng/mL protein instead of 2.5 μL of 80 ng/mL protein) for mixing with the test compound.
(§2) In all cases, the site-specific protease cleaves non-phosphorylated peptide only and eliminates the FRET signal. Phosphorylation levels of each reaction are calculated using the ratio of coumarin emission (donor) over fluorescein emission (acceptor), for which high ratios indicate high phosphorylation and low ratios indicate low phosphorylation levels. The percentage inhibition of each reaction is calculated relative to non-inhibited control and the 50% inhibitory concentration (IC50 value) is then calculated from the concentration-response curve.

c-Src = c-Src (Homo sapiens (Human), UniProt P12931); test: c-Src enzyme inhibition (FRET, Z-LYTE); format: biochemical
Procedure: as §1
(§3) The inhibitory activities of compounds of the invention against c-Src and Syk enzymes (Invitrogen), are evaluated in a similar fashion to that described hereinabove. The relevant enzyme (3000 ng/mL or 2000 ng/mL respectively, 2.5 μL) is incubated with the test compound (either 4 μg/mL, 0.4 μg/mL, 0.04 μg/mL, or 0.004 μg/mL, 2.5 μL each) for 2 hr at RT. The FRET peptides (8 μM, 2.5 μL), and appropriate ATP solutions (2.5 μL, 800 μM for c-Src, and 60 μM ATP for Syk) are then added to the enzymes/compound mixtures and incubated for 1 hr. Development reagent (protease, 5 μL) is added for 1 hr prior to detection in a fluorescence microplate reader (Varioskan® Flash, ThermoFisher Scientific).
as §2

Syk = Syk (Homo sapiens (Human), UniProt P43405); test: Syk enzyme inhibition (FRET, Z-LYTE); format: biochemical
Procedure: as §1, §3, §2

PBMCs = test: LPS-induced IL-8 release in PBMC cells (assay b); format: cell-based, human; details: LPS-stimulated PBMCs, read-out: IC50 Values for Inhibition of Cytokine Release, PBMCs IL-8
Summary of the method: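 Human PBMCs from healthy donors, isolated by density gradient, were pretreated with compound for 2 h and then stimulated with 1 ng/mL LPS (E. coli 0111:B4) for 24 h at 37° C, 5% CO2. Supernatant IL-8 and TNFα were measured by sandwich ELISA, and IC50 was taken from the dose-response curve.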

d-U937 cells = test: Accumulation of β catenin in d-U937 cells (assay m); format: cell-based, human; details: percentage relative to Reference Compound at 1 μg/mL
Procedure: U937 cells, a human monocytic cell line, are differentiated into macrophage-type cells by incubation with PMA; (100 ng/mL) for between 48 to 72 hr. The cells are then incubated with either final concentrations of test compound or vehicle for 18 hr. The induction of β-catenin by the test compounds is stopped by replacing the media with 4% formaldehyde solution. Endogenous peroxide activity is neutralised by incubating with quenching buffer (100 μL, 0.1% sodium azide, 1% H2O2 in PBS with 0.05% Tween-20) for 20 min. The cells are washed with washing buffer (200 μL; PBS containing 0.05% Tween-20) and incubated with blocking solution (200 μL; 5% milk in PBS) for 1 hr, re-washed with washing buffer (200 μL) and then incubated overnight with anti-β-catenin antibody solution (50 μL) in 1% BSA/PBS (BD, Oxford, UK).
After washing with washing buffer (3×200 μL; PBS containing 0.05% Tween-20), cells are incubated with an HRP-conjugated secondary antibody solution (100 μL) in 1% BSA/PBS (Dako, Cambridge, UK) and the resultant signal is determined colourimetrically (OD: 450 nm with a reference wavelength of 655 nm) using TMB substrate (50 μL; R&D Systems, Abingdon, UK). This reaction is stopped by addition of 1N H2SO4 solution (50 μL). Cells are then washed with washing buffer and 2% crystal violet solution (50 μL) is applied for 30 min. After washing with washing buffer (3×200 μL), 1% SDS (100 μL) is added to each well and the plates are shaken lightly for 1 hr prior to measuring the absorbance at 595 nm (Varioskan® Flash, Thermo-Fisher Scientific).
The measured OD450-655 readings are corrected for cell number by dividing the OD450-655 by the OD595 readings.

p38 MAPKα isoform (MAPK14), sequence (Q16539 whole entry, canonical isoform): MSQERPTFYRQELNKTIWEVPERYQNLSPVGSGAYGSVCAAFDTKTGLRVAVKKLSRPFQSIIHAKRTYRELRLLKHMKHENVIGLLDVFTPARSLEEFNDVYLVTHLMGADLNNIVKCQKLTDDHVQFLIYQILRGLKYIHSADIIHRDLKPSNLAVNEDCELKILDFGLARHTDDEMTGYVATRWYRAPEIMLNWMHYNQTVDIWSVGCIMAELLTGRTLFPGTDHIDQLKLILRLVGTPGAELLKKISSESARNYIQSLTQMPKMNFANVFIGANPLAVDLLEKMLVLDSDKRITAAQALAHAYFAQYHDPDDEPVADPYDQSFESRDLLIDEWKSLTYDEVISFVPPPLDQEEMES
c-Src, sequence (P12931 whole entry, looked up): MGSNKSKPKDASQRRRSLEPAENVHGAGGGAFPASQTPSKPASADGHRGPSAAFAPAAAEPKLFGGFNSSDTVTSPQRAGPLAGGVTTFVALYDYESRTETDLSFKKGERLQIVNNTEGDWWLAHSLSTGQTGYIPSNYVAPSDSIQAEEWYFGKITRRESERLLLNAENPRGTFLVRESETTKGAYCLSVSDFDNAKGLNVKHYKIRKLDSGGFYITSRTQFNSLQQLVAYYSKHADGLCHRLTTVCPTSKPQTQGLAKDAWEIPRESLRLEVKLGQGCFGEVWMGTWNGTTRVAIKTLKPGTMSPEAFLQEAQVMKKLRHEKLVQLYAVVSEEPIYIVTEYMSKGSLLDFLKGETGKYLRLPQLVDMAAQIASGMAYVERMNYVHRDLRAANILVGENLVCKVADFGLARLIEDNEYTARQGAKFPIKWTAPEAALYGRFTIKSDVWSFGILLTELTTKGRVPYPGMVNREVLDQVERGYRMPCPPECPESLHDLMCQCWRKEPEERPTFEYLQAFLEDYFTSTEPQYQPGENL
GSK 3α, sequence (P49840 whole entry): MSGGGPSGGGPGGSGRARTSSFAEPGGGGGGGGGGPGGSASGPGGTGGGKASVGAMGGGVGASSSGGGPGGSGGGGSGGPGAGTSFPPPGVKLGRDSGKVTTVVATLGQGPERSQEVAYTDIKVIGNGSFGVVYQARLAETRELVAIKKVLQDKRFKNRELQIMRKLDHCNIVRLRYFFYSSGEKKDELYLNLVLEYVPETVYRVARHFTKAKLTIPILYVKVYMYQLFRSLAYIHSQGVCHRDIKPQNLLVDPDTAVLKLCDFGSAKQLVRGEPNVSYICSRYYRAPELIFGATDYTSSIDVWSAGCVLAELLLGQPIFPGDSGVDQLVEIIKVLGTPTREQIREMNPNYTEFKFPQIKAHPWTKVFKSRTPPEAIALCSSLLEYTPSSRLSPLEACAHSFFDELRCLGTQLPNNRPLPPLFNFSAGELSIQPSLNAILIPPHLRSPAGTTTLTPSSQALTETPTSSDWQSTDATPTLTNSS

`COc1c(NC(=O)Nc2ccc(Oc3ccnc(N(C)C)n3)c3ccccc23)cc(C(C)(C)C)cc1P(C)(C)=O` [15(ak), 1-(5-(tert-butyl)-3-(dimethylphosphoryl)-2-methoxyphenyl)-3-(4-((2-(dimethylamino)-pyrimidin-4-yl)oxy)naphthalen-1-yl)urea] gave an IC50 (GSK 3α) of over 17800 nM, an IC50 [1] of 38 nM and an IC50 (c-Src) of over 1780 nM. The IC50 (Syk) was over 1780 nM and the IC50 (PBMCs; Homo sapiens, PBMC) was 26 nM.
With `COc1c(CNS(C)(=O)=O)cc(C(C)(C)C)cc1NC(=O)Nc1ccc(Oc2ccnc(Nc3ccccc3)c2)c2ccccc12` [15(aq), N-(5-(tert-butyl)-2-methoxy-3-(3-(4-((2-(phenylamino)pyridin-4-yl)oxy)naphthalen-1-yl)ureido)benzyl)methanesulfonamide] the IC50 (GSK 3α) was 3290 nM, the IC50 (c-Src) was 160 nM and the IC50 (Syk) was 1520 nM. The IC50 (PBMCs; Homo sapiens, PBMC) was 4.4 nM.
`COc1c(NC(=O)Nc2ccc(Oc3ccnc(Nc4ccccc4)n3)c3ccccc23)cc(C(C)(C)C)cc1OCP(C)(C)=O` [15(d), 1-(5-(tert-butyl)-3-((dimethylphosphoryl)methoxy)-2-methoxyphenyl)-3-(4-((2-(phenylamino)pyrimidin-4-yl)oxy)naphthalen-1-yl)urea] was tested, and the “% β-catenin induction” value (d-U937 cells; test compound 1 μg/mL) was 11.0%, the “% β-catenin induction” value (d-U937 cells; test compound 5 μg/mL) was 92.0% and the “% β-catenin induction” value (d-U937 cells; test compound 10 μg/mL) was 31.0%. It also gave an IC50 (GSK 3α) of 919 nM, an IC50 (c-Src) of 61 nM and an IC50 (Syk) of 477 nM. It also gave an IC50 (PBMCs; Homo sapiens, PBMC) of 6.2 nM.
For `COc1cccc(Nc2nccc(Oc3ccc(NC(=O)Nc4cc(C(C)(C)C)cc(P(C)(C)=O)c4OC)c4ccccc34)n2)c1` [15(g), 1-(5-(tert-butyl)-3-(dimethylphosphoryl)-2-methoxyphenyl)-3-(4-((2-((3-methoxy-phenyl)amino)pyrimidin-4-yl)oxy)naphthalen-1-yl)urea], the “% β-catenin induction” value (d-U937 cells; test compound 1 μg/mL) was 15.0%, the “% β-catenin induction” value (d-U937 cells; test compound 5 μg/mL) was 94.0% and the “% β-catenin induction” value (d-U937 cells; test compound 10 μg/mL) was 94.0%. For the same molecule, the IC50 (GSK 3α) was 757 nM and the IC50 (PBMCs) was 1.9 nM.
`COc1c(NC(=O)Nc2ccc(Oc3ccnc(Nc4ccccc4)c3)c3ccccc23)cc(C(C)(C)C)cc1S(C)(=O)=O` [15(m), 1-(5-(tert-butyl)-2-methoxy-3-(methylsulfonyl)phenyl)-3-(4-((2-(phenylamino)pyridin-4-yl)oxy)naphthalen-1-yl)urea] was tested, and the “% β-catenin induction” value (d-U937 cells; test compound 1 μg/mL) was −3.0%, the “% β-catenin induction” value (d-U937 cells; test compound 5 μg/mL) was 5.0% and the “% β-catenin induction” value (d-U937 cells; test compound 10 μg/mL) was 5.0%. It also gave an IC50 (GSK 3α) of over 16400 nM, an IC50 [1] of 747 nM and an IC50 (PBMCs; Homo sapiens, PBMC) of 16 nM.
`COc1cc(Nc2cc(Oc3ccc(NC(=O)Nc4cc(C(C)(C)C)cc(CC(N)=O)c4OC)c4ccccc34)ccn2)cc(C(=O)NCC(CO)(CO)CO)c1` [38(al), 3-((4-((4-(3-(3-(2-Amino-2-oxoethyl)-5-(tert-butyl)-2-methoxyphenyl)ureido)naphthalen-1-yl)oxy)pyridin-2-yl)amino)-N-(3-hydroxy-2,2-bis(hydroxymethyl)propyl)-5-methoxybenzamide] was tested, and the IC50 (GSK 3α) was 1970 nM, the IC50 [1] was 44 nM and the IC50 (PBMCs; Homo sapiens, PBMC) was 7.2 nM.
For `COc1cc(Nc2cc(Oc3ccc(NC(=O)Nc4cc(C(C)(C)C)cc([S+](C)[O-])c4OC)c4ccccc34)ccn2)ccc1C(=O)O` (stereo not shown) [79(g), 4-((4-((4-(3-(5-(tert-Butyl)-2-methoxy-3-(methylsulfinyl)phenyl)ureido)naphthalen-1-yl)oxy)pyridin-2-yl)amino)-2-methoxybenzoic acid], the IC50 (c-Src) was 17 nM, the IC50 (Syk) was 5 nM and the IC50 (PBMCs; Homo sapiens, PBMC) was 5.3 nM.
`COc1cc(Nc2cc(Oc3ccc(NC(=O)Nc4cc(C(C)(C)C)cc(P(C)(C)=O)c4OC)c4ccccc34)ccn2)cc(S(=O)(=O)N(C)CCN2CCN(C)CC2)c1` [79(m), 3-((4-((4-(3-(5-(tert-Butyl)-3-(dimethylphosphoryl)-2-methoxyphenyl)ureido)naphthalen-1-yl)oxy)pyridin-2-yl)amino)-5-methoxy-N-methyl-N-(2-(4-methylpiperazin-1-yl)ethyl)benzene sulfonamide] showed an IC50 [1] of 6 nM, an IC50 (c-Src) of 25 nM and an IC50 (Syk) of 7 nM. For the same molecule, the IC50 (PBMCs; Homo sapiens, PBMC) was 1.8 nM.
With `COCCOCCOCCNC(=O)c1cc(C(C)(C)C)cc(NC(=O)Nc2ccc(Oc3ccnc(Nc4cc(OC)cc(OCCOCCOCCOC)c4)n3)c3ccccc23)c1OC` [Example 7, 5-(tert-Butyl)-2-methoxy-3-(3-(4-((2-((3-methoxy-5-(2-(2-(2-methoxyethoxy)ethoxy)ethoxy)-phenyl)amino)pyrimidin-4-yl)oxy)naphthalen-1-yl)ureido)-N-(2-(2-(2-methoxyethoxy)ethoxy)-ethyl)benzamide] the IC50 (GSK 3α) was 1070 nM, the IC50 [1] was 108 nM and the IC50 (Syk) was 57 nM. For the same molecule, the IC50 (PBMCs; Homo sapiens, PBMC) was 4.6 nM.
`COc1cc(Nc2cc(Oc3ccc(NC(=O)Nc4cc(C(C)(C)C)cc(OCC(CO)(CO)CO)c4OC)c4ccccc34)ccn2)cc(C(N)=O)c1` [Example 67, 3-((4-((4-(3-(5-(tert-Butyl)-3-(3-hydroxy-2,2-bis(hydroxymethyl)propoxy)-2-methoxyphenyl)ureido)naphthalen-1-yl)oxy)pyridin-24)amino)-5-methoxybenzamide] showed an IC50 (GSK 3α) of 4260 nM, an IC50 [1] of 284 nM and an IC50 (PBMCs; Homo sapiens, PBMC) of 5.6 nM.
In the case of `COc1cc(Nc2cc(Oc3ccc(NC(=O)Nc4cc(C(C)(C)C)cc(P(C)(C)=O)c4OC)c4ccccc34)ccn2)ccc1C(=O)O` [Example 76, 4-((4-((4-(3-(5-(tert-Butyl)-3-(dimethylphosphoryl)-2-methoxyphenyl)ureido)naphthalen-1-yl)oxy)pyridin-2-yl)amino)-2-methoxybenzoic acid], the IC50 (GSK 3α) is reported as 70 nM and the IC50 (PBMCs; Homo sapiens, PBMC) is reported as 41.5 nM.
For `CNC(=O)c1cc(CN2CCN(C)CC2)cc(Nc2cc(Oc3ccc(NC(=O)Nc4cc(C(C)(C)C)cc(P(C)(C)=O)c4OC)c4ccccc34)ccn2)c1` [Example 78, 3-((4-((4-(3-(5-(tert-Butyl)-3-(dimethylphosphoryl)-2-methoxyphenyl)ureido)naphthalen-1-yl)oxy)pyridin-2-yl)amino)-N-methyl-5-((4-methylpiperazin-1-yl)methyl)benzamide], the IC50 (GSK 3α) was 773 nM and the IC50 (PBMCs; Homo sapiens, PBMC) was 23 nM.
For `COCC(=O)Nc1cc(Oc2ccc(NC(=O)Nc3cc(C(C)(C)C)nn3-c3ccc(C)cc3)c3ccccc23)ccn1` [Reference Compound, N-(4-(4-(3-(3-tert-butyl-1-p-tolyl-1H-pyrazol-5-yl)ureido)naphthalen-1-yloxy)pyridin-2-yl)-2-methoxyacetamide, reference compound], the “% β-catenin induction” value (d-U937 cells; test compound 1 μg/mL) was 100%.
